Data published in article PMC6151428, “Discovery of Novel N-Substituted Prolinamido Indazoles as Potent Rho Kinase Inhibitors and Vasorelaxation Agents” (Molecules : A Journal of Synthetic Chemistry and Natural …, 2017).
Like-named read-outs stand apart in the source and are kept apart here.

Legend:
ROCK I [1] = biological target: T1, ROCK I (Homo sapiens, UniProt Q13464); parameters: method as in PMID 22609784; settings: lead discovered by high-throughput screening, previous article; read-out: IC50 against ROCK I; cited from earlier work
T1 construct: purchased Cyclex, Nagoya, Japan CY-1160
T1 sequence (Q13464 whole entry, species assumed): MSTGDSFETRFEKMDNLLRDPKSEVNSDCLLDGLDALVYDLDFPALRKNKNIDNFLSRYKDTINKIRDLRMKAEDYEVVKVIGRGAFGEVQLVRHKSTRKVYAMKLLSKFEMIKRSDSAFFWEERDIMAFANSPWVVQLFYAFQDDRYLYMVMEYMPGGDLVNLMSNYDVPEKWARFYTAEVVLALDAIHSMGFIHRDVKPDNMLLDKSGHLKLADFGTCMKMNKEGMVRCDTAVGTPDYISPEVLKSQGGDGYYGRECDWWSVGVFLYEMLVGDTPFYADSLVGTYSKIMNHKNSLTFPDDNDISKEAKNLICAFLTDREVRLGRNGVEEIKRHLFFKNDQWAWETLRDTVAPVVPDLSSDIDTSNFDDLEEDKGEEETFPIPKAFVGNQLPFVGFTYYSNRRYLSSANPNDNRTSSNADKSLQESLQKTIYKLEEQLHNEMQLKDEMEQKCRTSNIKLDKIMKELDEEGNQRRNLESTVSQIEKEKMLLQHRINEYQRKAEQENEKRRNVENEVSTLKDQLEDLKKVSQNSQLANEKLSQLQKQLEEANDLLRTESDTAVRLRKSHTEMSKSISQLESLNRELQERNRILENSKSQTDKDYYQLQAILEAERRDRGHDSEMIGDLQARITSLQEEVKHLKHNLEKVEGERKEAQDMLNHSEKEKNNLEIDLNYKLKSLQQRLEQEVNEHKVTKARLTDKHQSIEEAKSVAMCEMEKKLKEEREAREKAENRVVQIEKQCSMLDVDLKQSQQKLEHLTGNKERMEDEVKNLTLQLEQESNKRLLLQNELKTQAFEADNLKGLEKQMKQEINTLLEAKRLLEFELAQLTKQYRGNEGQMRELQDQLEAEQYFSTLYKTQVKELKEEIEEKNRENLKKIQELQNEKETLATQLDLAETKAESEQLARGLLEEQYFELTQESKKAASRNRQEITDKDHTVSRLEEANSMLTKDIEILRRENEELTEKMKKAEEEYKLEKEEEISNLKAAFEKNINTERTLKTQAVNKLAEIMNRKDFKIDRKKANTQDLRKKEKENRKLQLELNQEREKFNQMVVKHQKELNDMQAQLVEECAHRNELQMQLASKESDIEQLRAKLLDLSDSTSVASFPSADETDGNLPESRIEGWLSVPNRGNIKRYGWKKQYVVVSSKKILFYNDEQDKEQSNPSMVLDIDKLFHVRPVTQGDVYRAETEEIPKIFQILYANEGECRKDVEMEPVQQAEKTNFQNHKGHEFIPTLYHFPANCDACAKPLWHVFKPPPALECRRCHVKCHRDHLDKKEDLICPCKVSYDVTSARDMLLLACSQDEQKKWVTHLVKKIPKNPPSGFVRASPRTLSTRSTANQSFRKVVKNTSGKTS

rat aortic rings [2] = assay: Vasorelaxant activity test, high-potassium model; settings: rat aortic rings constricted with high K+ (60 mmol/L); a: mean N = 6; b: single determination; -- = No activity
Source text: (§1) Abnormalities in the Rho/ROCK signaling pathway are associated with various cardiovascular diseases, especially hypertension. The inhibition of the Rho/ROCK pathway can cause the vessels to relax. The norepinephrine (NE)- or potassium chloride (KCl)-induced model of the rat aortic ring can trigger sustained vessel contraction and is usually used to evaluate vasorelaxant activity. DL0805 has shown vasorelaxant activity. Therefore, the nine compounds with significant inhibition against ROCK I were further tested for their vasorelaxant activity in rat aortic rings in both the high-potassium and NE models (Table 3). […] The potent active compound 4b with excellent activity has been further evaluated, and further pharmacokinetic and safety evaluations are in progress.
(§2) Male Sprague-Dawley rats weighing 240–280 g (Vital River Laboratories, Beijing, China) were maintained in a 12-h light/dark cycle at 24 °C in a relative humidity of 60% room, and received food and water ad libitum. The animal care and handling were performed in accordance with the Guide for the Care and Use of Laboratory Animals published by the US National Institutes of Health and the Laboratories Institutional Animal Care and Use Committee of the Chinese Academy of Medical Science and Peking Union Medical College (ethic approval number: 00001012).
(§3) The vasorelaxant activity assay was performed as described previously. Briefly, the descending thoracic aorta was isolated after rats were euthanized by cervical dislocation. Then, the aorta was cut into ring segments (3–4 mm in length). The endothelial layer of the aorta was destroyed by gently rubbing the luminal surface with a moist cotton swab when necessary. Two stainless-steel triangles were inserted into the lumen of each ring. One triangle was fixed, and the other attached to a force transducer. Changes in isometric force were recorded on a BIOPAC polygraph (MP100WSW, Biopac Systems, Inc, Goleta, CA, USA). The rings were mounted in organ baths containing 10 mL Krebs-Henseleit (K-H) buffer with the following composition (mM): NaCl 120, KCl 4.8, MgSO4 1.4, KH2PO4 1.2, glucose 11.0, CaCl2 2.5, NaHCO3 25.0 and EDTA 0.01. The K-H buffer was continuously bubbled with 95% O2/5% CO2 at 37 °C. Rings were allowed to equilibrate for 60 min at a resting tension of 1.2 g with changes of buffer every 20 min.
(§4) After the equilibration period, the aortic rings were constricted with a high K^+ (60 mM) K-H solution to stimulate the tissue and to test its availability. Then, the rings were washed with normal K-H buffer to restore the basic tension of 1.2 g. The aortic rings were then stimulated with a high K^+ (60 mmol/L) K-H buffer ornorepinephrine (1 μM) to evaluate the vasorelaxant effects of the compounds. When the contraction reached the platform, compounds were added to the bath in batches at 5-min intervals to reach the accumulative concentrations of 1, 2, 5, 10, 25 and 50 μM. The tension of vessels was recorded and nonlinear regression was used to calculate the EC50 values.

ROCK I [3] = biological target: T1, ROCK I; assay: Rho kinase activity assay (Cyclex CY-1160 kit); format: biochemical
Description: Briefly, the compounds at 20 μM were pre-incubated in a system wherein ROCK I (0.02 ng/μL) phosphorylates the kinase substrate’s myosin-binding subunit (MBS) pre-absorbed onto the microplate in the presence of Mg^2+ and ATP. Then, the system was washed after incubation at 30 °C for 30 min. 100 μL of horseradish peroxidase-conjugated anti-AF20 antibody was added to the wells and then incubated for 30 min at room temperature. The reaction system was then incubated with the substrate tetra-methylbenzidine (TMB), which can be catalyzed from a colorless solution to a blue solution. The absorbance was measured at a wavelength of 450 nm on a microplate reader. The color reflects the relative level of ROCK I activity. The inhibitory rates of the compounds on ROCK I were obtained from OD 450 nm and the IC50 values were calculated by nonlinear regression.

rat aortic rings [4] = assay: Vasorelaxant activity test, NE model; settings: rat aortic rings constricted with norepinephrine (1 μM); a: mean N = 6; b: single determination; -- = No activity
Source text: as §1, §2, §3, §4

## N#Cc1n[nH]c2ccc([N+](=O)[O-])cc12 [DL0805, 5-Nitro-1H-indazole-3-carbonitrile, reference compound]
ROCK I [1]
  IC50: 6.7 µM
Rat aortic rings [2]
  EC50: 9.44 µM
ROCK I [3]; a: means of multiple experiments (N = 4), errors within 30% of the mean, b: single determinations, read-out: IC50 against ROCK I
  IC50: 6.67 µM
ROCK I [3]; compound concentration 20 μM, single determinations
  inhibition at 20 µM: 72.3%
Rat aortic rings [4]
  EC50: 28.8 µM
